From EP0345906B1, “Unique elastase induced fibrinogen cleavage site antigens” (MERCK & CO. INC., priority 1988, dated 1989)
Where “and” joins values, the source holds several entries; their conditions need not be identical. Equal entries are not always repeated.

Tests used:
[1] = tested on: whole human blood; assay: In vitro production of Aα 17-21 epitope containing peptide in human blood, effect of ionophore concentration; format: cell-based; parameters: Aα 17-21 Epitope Containing (picomoles per ml blood): unit of the concentration uncertain; conditions: for Aα 17-21 Epitope Containing (picomoles per ml blood): 15 minutes at 37°C
Description: The radioimmunoassay was conducted in a total volume of 300 ml with all dilutions carried out in assay buffer, Example 6. Standard solutions were prepared at concentrations in the range of 1 x 10⁻¹⁰M to 2 x 1O⁻⁸M which represents amounts of peptide ranging from 0.01 picomoles to 2.0 picomoles in the 100 ml aliquot used in the assay. The assay included antibody-free controls to measure non-specific binding, and controls containing antibody and probe without added standard samples or unknown samples to determine the control level of peptide binding. To 100 ml of buffer, standard sample or unknown was added, 100 ml of specific antiserum from Examples 2 and 7, diluted 1:1,000 in assay buffer. This was followed by the addition of […] of radioactive probe, 125I-Tyrosyl-Aα 1-21 fibrinogen peptide, diluted in assay buffer to yield approximately 15,000 to 20,000 cpm per 100 ml aliquot. The assay was incubated overnight at 4°C and the non-antibody-bound radioactive probe was separated from antibody-bound probe by adsorption onto dextran-coated activated charcoal, see Example 7. Each assay included charcoal-free controls, to which 1 ml PBS was added for the determination of total counts. Radioactivity was determined using a gamma counter and standard techniques known in the art.
The antibody-free control and the zero-peptide antibody control were counted to determine the 0% bound and 100% bound values respectively. The assay standards are then counted and divided by the antibody control to determine the percent bound and a standard curve was generated. When the percent bound is plotted as a function of the logarithem of the amount of peptide in the standard, a sigmoidal curve is generated which is close to linear between the limits of 80% bound and 20% bound. Unknowns are counted, their percent of control calculated and they are compared to the standard curve to determine the amount of peptide present in the sample. Only those unknowns with values between 80% and 20% of control binding are considered valid.
Duplicate 1.0 ml aliquots of freshly-drawn heparinized vaccutainers containing 50 u per ml whole human blood were incubated for 15 minutes at 37°C in the presence of calcium ionophore A23187 at concentrations ranging up to 200 mM. The calcium ionophore was dissolved in dimethyl sulfoxide (DMSO) with the DMSO concentration in blood kept constant at 0.2%. Following incubation the aliquots were placed on ice, centrifuged and the plasma collected. Plasma aliquots (400 ml) were removed and placed in 12 x 75 mm glass tubes and 1200 ml chilled ethanol was added to precipitate the protein. The sample was centrifuged and 800 ml of the supernatant fluid was removed and evaporated to dryness in a Speed-vac concentrator. The sample was reconstituted to original plasma volume with 200 ml of distilled water. Duplicate […] aliquots were assayed for Aα 17-21 epitope containing peptide (Aα 1-21) as described in this Example. […]

[2] = tested on: whole blood; assay: In vitro production of Aα 17-21 epitope containing peptide in whole blood, ionophore incubation time; format: cell-based, human; parameters: dose or concentration left out as unconfirmed
Description: Calcium ionophore A23187 was added to replicate 1.0 ml aliquots of freshly-drawn heparinized whole blood as described above, to a final concentration of 150 mM. Additional control aliquots of blood received DMSO at a concentration of 0.2%. The blood aliquots were incubated at 37° for various time intervals ranging up to 60 minutes. Following the incubation, plasma was prepared, processed and assayed as above.

[3] = tested on: Whole Blood of PiZZ and Normal Individuals; assay: A23187-stimulated production of fibrinogen cleavage peptide in blood of PiZZ and normal individuals; format: cell-based, human; parameters: dose or concentration left out as unconfirmed; conditions: 37° for 25 minutes, one value per individual
Description: Heparinized venous blood was drawn from four individuals who process the PiZZ phenotype, deficient for alpha-1 proteinase inhibitor. Blood was also collected from two normal volunteers. Calcium ionophore A23187 was added to replicate aliquots of the freshly drawn blood to a final concentration of 150 mM. The blood was incubated at 37° for 25 minutes, the plasma collected and assayed cleavage peptide.
Values are expressed as pM Aα 17-21 epitope containing peptide produced per ml of plasma. The blood samples derived from the four individuals who were genetically deficient in alpha-1 proteinase inhibitor produced greater amounts of peptide than did those derived from the normal volunteers. Under basal conditions no fibrinogen cleavage products could be detected in the blood of any of the donors.

[4] = tested on: Rabbit antiserum prepared against the Aα 17-21 immunogen; assay: Antibody specificity radioimmunoassay, rabbit antiserum; format: binding; conditions: antiserum 1:1,000; probe ¹⁵I-tyrosyl-Aα 1-21; amount in 100 ml aliquot
Description: Antibody specificity was determined by evaluating the ability of unlabelled peptides, specificity probes, of varying length, see Example 6, to inhibit the binding of the Aα 1-21radioactive probe. Rabbit antiserum prepared against the Aα 17-21 immunogen described in Example 2 was diluted in assay buffer, see Example 6, at a dilution of 1:1,000. The specificity peptides of Example 5 were diluted in assay buffer at concentrations ranging from 1.6 x 10⁻¹⁰ M to 1 x 10⁻⁵ M. One hundred ml of each dilution was added to 100 ml of antiserum and 100 ml of radioactive probe. This represents specificity probe peptide in concentrations ranging from 0.016 picomoles to 1.0 nanomoles in the 100 ml aliquot used in the assay. The radioactive probe […], see Example 5, was diluted in assay buffer to yield approximately 20,000 cpm per 100 ml aliquot, the amount used per sample or control. The assay was set up in a volume of 300 ml, with the volume made up where necessary with assay buffer. […]
The antibody-free control and the zero-peptide antibody control are counted to determine the 0% bound and the 100% bound values respectively. Radioactivity was determined using a gamma counter and standard techniques known in the art. The samples containing the test peptides are then counted and the amount of radioactivity associated with the antibody-free control subtracted from each. […]

[5] = tested on: Guinea Pig (#3); assay: Antibody specificity radioimmunoassay, guinea pig antiserum; format: binding; conditions: probe ¹⁵I-tyrosyl-Aα 1-21

Compound: CNc1ccc2oc(C[C@H]3O[C@@]4(CC[C@H]3C)O[C@H]([C@H](C)C(=O)c3ccc[nH]3)[C@H](C)C[C@H]4C)nc2c1C(=O)O [A23187]
- Aα 17-21 Epitope Containing (picomoles per ml blood) ([1]; Ionophore Concentration 5 (unit uncertain)): 1.2 picomoles per ml blood
- Aα 17-21 Epitope Containing (picomoles per ml blood) ([1]; Ionophore Concentration 15 (unit uncertain)): 1.6 picomoles per ml blood
- Aα 17-21 Epitope Containing (picomoles per ml blood) ([1]; Ionophore Concentration 25 (unit uncertain)): 2.6 picomoles per ml blood
- Aα 17-21 Epitope Containing (picomoles per ml blood) ([1]; Ionophore Concentration 50 (unit uncertain)): 2.8 picomoles per ml blood
- Aα 17-21 Epitope Containing (picomoles per ml blood) ([1]; Ionophore Concentration 100 (unit uncertain)): 4.0 picomoles per ml blood
- Aα 17-21 Epitope Containing (picomoles per ml blood) ([1]; Ionophore Concentration 150 (unit uncertain)): 4.1 picomoles per ml blood
- Aα 17-21 Epitope Containing (picomoles per ml blood) ([1]; Ionophore Concentration 200 (unit uncertain)): 3.8 picomoles per ml blood
- concentration giving optimal production of Aα 17-21 epitope-containing peptide ([1]; whole human blood): 150 mM
- Aα 17-21 Epitope (picomoles/ml plasma) ([2]; Incubation Time 2.5 minutes): 2.3 picomoles/ml plasma
- Aα 17-21 Epitope (picomoles/ml plasma) ([2]; Incubation Time 7.5 minutes): 2.8 picomoles/ml plasma
- Aα 17-21 Epitope (picomoles/ml plasma) ([2]; Incubation Time 10.0 minutes): 3.5 picomoles/ml plasma
- Aα 17-21 Epitope (picomoles/ml plasma) ([2]; Incubation Time 15.0 minutes): 3.7 picomoles/ml plasma
- Aα 17-21 Epitope (picomoles/ml plasma) ([2]; Incubation Time 20.0 minutes): 3.7 picomoles/ml plasma
- Aα 17-21 Epitope (picomoles/ml plasma) ([2]; Incubation Time 25.0 minutes): 3.8 picomoles/ml plasma
- Aα 17-21 Epitope (picomoles/ml plasma) ([2]; Incubation Time 30.0 minutes): 3.8 picomoles/ml plasma
- Aα 17-21 Epitope (picomoles/ml plasma) ([2]; Incubation Time 40.0 minutes): 3.6 picomoles/ml plasma
- Aα 17-21 Epitope (picomoles/ml plasma) ([2]; Incubation Time 50.0 minutes): 3.1 picomoles/ml plasma
- Aα 17-21 Epitope (picomoles/ml plasma) ([2]; Incubation Time 60.0 minutes): 3.2 picomoles/ml plasma
- Aα 17-21 Epitope (picomoles/ml plasma) ([2]; Incubation Time <1.0 minutes): 0.7 picomoles/ml plasma
- Aα 17-21 epitope containing peptide produced per ml of plasma, A23187 ([3]; Normal individuals): 4.2 pM per ml of plasma and 4.6 pM per ml of plasma
- Aα 17-21 epitope containing peptide produced per ml of plasma, A23187 ([3]; PiZZ individuals): 8.4 pM per ml of plasma and 26.5 pM per ml of plasma and 20.5 pM per ml of plasma and 17.8 pM per ml of plasma

Compound: Gly-Pro-Arg-Val-Val (GPRVV; printed: Gly-Pro-Arg-Val-Val) [Aα 17-21]
- Inhibitory Concentration (IC₅₀) picomoles Rabbit (#20) [4]: 1.6 picomoles
- Inhibitory Concentration (IC₅₀) picomoles Guinea Pig (#3) [5]: 10 picomoles
